# Earlier results in patent US20020187562A1, “Materials for separating and detecting enantiomers of amphetamine or methamphetamine, and their application” (priority 2001, published 2002).
# System: central nervous system
# Conditions: relative to D-MA
smiles,measurement,value
"CN[C@H](C)Cc1ccccc1 [L-MA, (R)-(−)-N-methyl-1-phenyl-2-aminopropane]",stimulation to the central nervous system of humans compared with D-MA,much weaker than that of D-MA
